According to patent US20050014812A1, “Benzimidazole compounds” (Fujisawa Pharmaceutical Co., Ltd., priority 2003, published 2005):

tested on: C57BL/KsJ-db/db (db/db) mice; assay: Plasma glucose and triglyceride lowering in db/db mice (Experimental Example 1); assay type: in vivo; details: female db/db mice, 10 mg/kg orally once daily for 7 days, fed state; lean (+m/+m) group = 100% inhibition, db/db control = 0%
Protocol: Female C57BL/KsJ-db/db (db/db) mice and C57BL/KsJ-+m/+m (lean) mice (5 weeks old) were purchased from Jackson Laboratory, and subjected to the test after 1-2 weeks of acclimating period. Animals were maintained on standard laboratory chow and water ad libitum.
Test compound was dissolved or suspended in 0.5% methylcellulose solution and administered orally once a day at a volume of 5 mL/kg of body weight.
• 4-({1-[(3,5-dichloro-2-pyridinyl)methyl]-2,4-dimethyl-1H-benzimidazol-6-yl}oxy)butanoic acid (Example 21) • 4-{[1-(2,4-dichlorobenzyl)-2-ethoxy-4-methyl-1H-benzimidazol-6-yl]oxy}butanoic acid (Example 39) • 2-{[(1-{[3-chloro-5-(trifluoromethyl)-2-pyridinyl]methyl}-2-methyl-1H-benzimidazol-6-yl)oxy]methyl}benzoic acid (Example 75) Test Schedule
At 6 weeks of age, blood was obtained from the retro-orbital sinus by capillary pipette with heparin under feeding condition. Mice were divided into groups matched for body weight, plasma glucose and triglyceride. From 6-7 weeks of age, test compound was administered orally once daily for 7 days. On the next morning of the last administration day, body weight was measured and blood was obtained under feeding condition, and plasma glucose and triglyceride were measured.
Plasma glucose and triglyceride were determined by a mutarotase.glucose oxidase method and a glycerol-3-phosphate oxidase.3,5-dimethoxy-N-ethyl-N-(2′-hydroxy-3′-sulfopropyl)aniline natrium method, respectively, using assay kits from Wako Pure Chemical Industries, Ltd. (Osaka, Japan).
Values of plasma glucose and triglyceride for the lean group (+m/+m) were set as 100% inhibition, and for the control group (db/db) as 0% inhibition. The inhibition rate of plasma glucose and triglyceride for the test group was determined.

In order of falling “Inhibition rate of plasma glucose” value:
1. Cc1nc2ccc(OCc3ccccc3C(=O)O)cc2n1Cc1ncc(C(F)(F)F)cc1Cl [Example 75, 2-{[(1-{[3-chloro-5-(trifluoromethyl)-2-pyridinyl]methyl}-2-methyl-1H-benzimidazol-6-yl)oxy]methyl}benzoic acid]  72%
2. CCOc1nc2c(C)cc(OCCCC(=O)O)cc2n1Cc1ccc(Cl)cc1Cl [Example 39, 4-{[1-(2,4-dichlorobenzyl)-2-ethoxy-4-methyl-1H-benzimidazol-6-yl]oxy}butanoic acid]  45%
3. Cc1cc(OCCCC(=O)O)cc2c1nc(C)n2Cc1ncc(Cl)cc1Cl [Example 21, 4-({1-[(3,5-dichloro-2-pyridinyl)methyl]-2,4-dimethyl-1H-benzimidazol-6-yl}oxy)butanoic acid]  41%

In order of falling “Inhibition rate of plasma triglyceride” value:
1. Cc1nc2ccc(OCc3ccccc3C(=O)O)cc2n1Cc1ncc(C(F)(F)F)cc1Cl [Example 75, 2-{[(1-{[3-chloro-5-(trifluoromethyl)-2-pyridinyl]methyl}-2-methyl-1H-benzimidazol-6-yl)oxy]methyl}benzoic acid]  89%
2. CCOc1nc2c(C)cc(OCCCC(=O)O)cc2n1Cc1ccc(Cl)cc1Cl [Example 39, 4-{[1-(2,4-dichlorobenzyl)-2-ethoxy-4-methyl-1H-benzimidazol-6-yl]oxy}butanoic acid]  60%
3. Cc1cc(OCCCC(=O)O)cc2c1nc(C)n2Cc1ncc(Cl)cc1Cl [Example 21, 4-({1-[(3,5-dichloro-2-pyridinyl)methyl]-2,4-dimethyl-1H-benzimidazol-6-yl}oxy)butanoic acid]  55%
